The values below come from PMC4729137, “Functional analysis of androgen receptor mutations that confer anti-androgen resistance identified in circulating cell-free DNA from prostate cancer patients” (Genome Biology, 2016).

For series [1] the following is noted: serum of prostate cancer patients, cited from earlier work.
In a further series the target is T1, BF3 pocket of AR-LBD (Homo sapiens, UniProt P10275).
T1 construct: the (His)6-tagged AR-LBD was prepared at 4X final concentration in the buffer
T1 sequence (P10275 669-900 limits assumed): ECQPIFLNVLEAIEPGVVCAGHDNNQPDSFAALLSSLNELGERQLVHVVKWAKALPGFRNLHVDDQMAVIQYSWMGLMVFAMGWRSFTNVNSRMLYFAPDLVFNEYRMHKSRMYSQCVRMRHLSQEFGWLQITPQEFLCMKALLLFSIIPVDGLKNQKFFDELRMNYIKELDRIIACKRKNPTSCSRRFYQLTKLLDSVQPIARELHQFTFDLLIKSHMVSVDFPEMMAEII
Put plainly: Lanthascreen TR-FRET displacement of FITC-BAG1L peptide. It is filed as binding. The following applies: compounds 0.41 to 100 μM. (In general: TR-FRET usually uses a lanthanide donor and a delayed reading to cut background.)

The test system of the next series is 24 AR mutants. Put plainly: AR inhibition luciferase assay, panel of all 24 AR mutants. It is filed as cell-based, human. The following applies: all tested AR mutants; Additional file 4: Table S2. An excerpt: Full-length human AR (WT-AR) was encoded on a pcDNA3.1 expression plasmid (Life technologies). The LBD point mutations (single and multiple) were generated using the QuikChange II Site-Directed Mutagenesis Kit (Agilent Technologies) as per manufacturer’s instructions using WT-AR as the template. The mutagenic oligonucleotide primers were designed individually with the desired mutation in the middle of the primer with approximately 10 to 15 bases of correct sequence on both sides.
PC3 cells were seeded and transfected as described above. […] A non-stimulated/no R1881 control was used. After 24 h, cells were lysed and AR-dependent luciferase activity was quantified. Each concentration was assayed in quadruplicate n = 4, with a biological replicate of n = 3. Results were averaged and normalized by expressing them as a percentage of WT AR activity.

Where two headings read alike, the source gives them in different places.

Experimental for BF3 pocket of AR-LBD: Compounds were tested in the range of 0.41 to 100 μM in a final concentration of 1.5 % DMSO. The protein AR-LBD, the FITC-BAG1L peptide, and the LanthaScreen® Elite Terbium-labeled anti-His-tag antibody (Life Technologies, PV5863) were used at final concentrations of 100 nM, 500 nM, and 5 nM, respectively. […] Mix B contained 4X FITC-BAG1L peptide in 2 % DMSO. A three-fold serial dilution of the compounds was prepared at 100X final concentration in DMSO. […] In a black flat bottom 384-well plate 5 μL of Mix A, 5 μL of Mix B, and 10 μL of Mix C were added.

As to `CC(O)(CS(=O)(=O)c1ccc(F)cc1)C(=O)Nc1ccc(C#N)c(C(F)(F)F)c1` (stereo not shown) [Bicalutamide, bicalutamide], the “Steady state concentration in serum” value was 8.9 µg/mL in series [1] and “approximately 20 μM” in series [1] (converted from μg/mL).
On to `Brc1cn(-c2csc(N3CCOCC3)n2)c(Br)n1` [VPC-14449], for which the “Displacement of FITC labeled BAG1L peptide (residues 1-20) from the BF3 pocket of AR” value on BF3 pocket of AR-LBD is “not able to displace”.
Turning to `C[C@]12CC[C@H](O)CC1=CC[C@@H]1[C@@H]2CC[C@]2(C)C(c3cccnc3)=CC[C@@H]12` [abiraterone], in the series with 24 AR mutants, the “Activation of AR mutants (in words)” value was “none of the tested mutants were activated”.
